# In patent US10138225B2 (Achillion Pharmaceuticals, Inc., priority 2015, dated 2018):
# Biological target: T1, Human Factor D (Homo sapiens, UniProt P00746)
# T1 construct: purified from human serum; purchased Complement Technology, Inc; host or cells: human serum (natural protein, not recombinant)
# Assay: Human Factor D Assay
# Format: biochemical
# Details: Table 3; factor D inhibition assay; read-out: IC50 (Stars)
# How it was run: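 Serum-purified human factor D (80 nM final) was preincubated with compound for 5 min at room temperature in 50 mM Tris, 1 M NaCl, pH 7.5. Z-L-Lys-SBzl and DTNB were added at 100 μM each, and A405 was read every 30 s for 30 min. IC50 came from nonlinear regression of reaction rates versus compound concentration.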
# T1 sequence (P00746 26-253): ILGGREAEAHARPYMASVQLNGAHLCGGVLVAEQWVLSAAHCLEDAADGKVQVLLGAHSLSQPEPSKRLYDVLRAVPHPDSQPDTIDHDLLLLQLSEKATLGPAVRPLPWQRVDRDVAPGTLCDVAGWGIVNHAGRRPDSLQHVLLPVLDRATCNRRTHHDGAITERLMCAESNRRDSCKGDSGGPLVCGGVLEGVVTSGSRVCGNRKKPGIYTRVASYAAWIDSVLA
row,Structure (SMILES),IC50 [nM]
1,"Cc1cccc(NC(=O)[C@@H]2[C@H]3CC[C@H](C3)N2C(=O)Cn2cc(C(N)=O)c3cc(C(=O)NS(=O)(=O)C4CC4)ccc32)n1 [Compound 209, N5-(cyclopropylsulfonyl)-1-(2-((1R,4S)-3-((6-methyl-pyridin-2-yl)carbamoyl)-2-aza-bicyclo[2.2.1]heptan-2-yl)-2-oxoethyl)-1H-indole-3,5-dicarboxamide]",> 10000
2,"CC(=O)c1nn(CC(=O)N2C[C@H](F)C[C@H]2C(=O)Nc2cccc(Br)n2)c2cc(C(=O)NS(=O)(=O)C3CC3)ccc12 [Compound 233, 3-acetyl-1-(2-((2S,4R)-2-((6-bromopyridin-2-yl)-carbamoyl)-4-fluoro-pyrrolidin-1-yl)-2-oxoethyl)-N-(cyclopropylsulfonyl)-1H-indazole-6-carboxamide]",< 1000
3,"CC(=O)c1nn(CC(=O)N2[C@H](C(=O)Nc3cccc(Br)n3)C[C@@]3(C)C[C@@H]23)c2cc(C(=O)NS(=O)(=O)C3CC3)ccc12 [Compound 234, 3-acetyl-1-(2-((1R,3S,5R)-3-((6-bromopyridin-2-yl)carbamoyl)-5-methyl-2-azabicyclo [3.1.0]hexan-2-yl)-2-oxoethyl)-N-(cyclopropylsulfonyl)-1H-indazole-6-carboxamide]",1000 to 10000

# Further lines, results first:
row,IC50 [nM],Structure (SMILES)
1,< 1000,"CC(=O)c1nn(CC(=O)N2C[C@H](F)C[C@H]2C(=O)Nc2cccc(Br)n2)c2ccc(NC(=O)N3CCC(F)(F)C3)cc12 [Compound 207, N-(3-acetyl-1-(2-((2S,4R)-2-((6-bromo-pyridin-2-yl)carbamoyl)-4-fluoro-pyrrolidin-1-yl)-2-oxoethyl)-1H-indazol-5-yl)-3,3-difluoro-pyrrolidine-1-carboxamide]"
2,< 1000,"CC(=O)c1cn(CC(=O)N2C[C@H](F)C[C@H]2C(=O)NCc2cccc(Cl)c2F)c2ccc(C(=O)NS(=O)(=O)C3CC3)cc12 [Compound 208, 3-acetyl-1-(2-((2S,4R)-2-((3-chloro-2-fluorobenzyl)carbamoyl)-4-fluoropyrrolidin-1-yl)-2-oxoethyl)-N-(cyclopropylsulfonyl)-1H-indole-5-carboxamide]"
3,< 1000,CC(=O)c1nn(CC(=O)N2C[C@H](F)C[C@H]2C(=O)Nc2cccc(Br)n2)c2ccc(NC(=O)C3CCCC3(F)F)cc12 (stereo partly drawn) [Compound 230]
